# Like-named read-outs stand apart in the source and are kept apart here.
# Molecular target: hT2R8 (Homo sapiens (Human), UniProt Q9NYW2)
# Experiment: hT2R8 antagonist high-throughput FLIPR assay, stable cell line with G16g44, agonist andrographolide
# Format: cell-based
# Outline: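 Antagonist screen: compounds co-applied with agonist andrographolide at 200 μM, a dose giving 70–80% of maximal hT2R8 activation. Fluorescence measured by FLIPR in a stable HEK293 line expressing both hT2R8 and the promiscuous G16g44 protein.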
# [1] = table after Example 12-37, read-out: hT2R8 IC50
# [2] = read-out: IC50 on hT2R8 bitter receptor
# [3] = table after Example 10-97, read-out: hT2R8 IC50
# [4] = unit uM, read-out: IC50 on hT2R08 bitter receptor
# Sequence of hT2R8 (Q9NYW2 whole entry): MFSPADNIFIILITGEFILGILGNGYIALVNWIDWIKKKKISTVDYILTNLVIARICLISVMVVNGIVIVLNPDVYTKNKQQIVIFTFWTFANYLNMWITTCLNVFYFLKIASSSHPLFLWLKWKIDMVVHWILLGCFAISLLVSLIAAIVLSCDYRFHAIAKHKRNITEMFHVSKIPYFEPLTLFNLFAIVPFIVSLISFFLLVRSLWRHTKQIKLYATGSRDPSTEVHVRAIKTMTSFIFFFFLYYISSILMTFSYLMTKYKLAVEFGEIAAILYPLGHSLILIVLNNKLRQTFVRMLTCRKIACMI
Compound,IC50 [2] [µM],IC50 [3] [µM],other results
"COCCOc1cccc(CN2C(=O)N(c3cnn(Cc4c(C)noc4C)c3)C(=O)C2(C)C)c1 [Example 12-80, 3-(1-((3,5-dimethylisoxazol-4-yl)methyl)-1H-pyrazol-4-yl)-1-(3-(2-methoxyethoxy)benzyl)-5,5-dimethylimidazolidine-2,4-dione]",,,IC50 [1]: 0.71 µM
"Cc1noc(C)c1Cn1cc(N(C)C(=O)C2(c3ccccc3)CC2)cn1 [Example 4-66, N-(1-((3,5-dimethylisoxazol-4-yl)methyl)-1H-pyrazol-4-yl)-N-methyl-1-phenylcyclopropanecarboxamide]",,,"IC50 (Table A, read-out: hT2R8 IC50): 8.23 µM"
"COC(=O)c1cccc(CN2CC(=O)N(c3cnn(Cc4c(C)noc4C)c3)C2=O)c1 [Example 10-7, methyl 3-((3-(1-((3,5-dimethylisoxazol-4-yl)methyl)-1H-pyrazol-4-yl)-2,4-dioxoimidazolidin-1-yl)methyl)benzoate]",0.09,0.102,
"Cc1noc(C)c1Cn1cc(N2C(=O)N(Cc3cccc(OCCO)c3)C(C)(C)C2=O)cn1 [Example 12-63, 3-(1-((3,5-dimethylisoxazol-4-yl)methyl)-1H-pyrazol-4-yl)-1-(3-(2-hydroxyethoxy)benzyl)-5,5-dimethylimidazolidine-2,4-dione]",,,IC50 [1]: 0.28 µM
"COc1ccc(CN2C(=O)N(c3cnn(Cc4c(C)noc4C)c3)C(=O)C23CC3)cc1OC [Example 12-13, 4-(3,4-dimethoxybenzyl)-6-(1-((3,5-dimethylisoxazol-4-yl)methyl)-1H-pyrazol-4-yl)-4,6-diazaspiro[2.4]heptane-5,7-dione]",0.02,,
"COc1ccccc1C(=O)Nc1cnn(Cc2c(C)noc2C)c1 [Example 4-19, N-(1-((3,5-dimethylisoxazol-4-yl)methyl)-1H-pyrazol-4-yl)-2-methoxybenzamide]",,,"IC50 (Table A, read-out: hT2R8 IC50): 0.39 µM"
"COc1ccc(O)c(C(=O)Nc2cnn(Cc3c(C)noc3C)c2)c1 [Example 4-27, N-(1-((3,5-dimethylisoxazol-4-yl)methyl)-1H-pyrazol-4-yl)-2-hydroxy-5-methoxybenzamide]",,,"IC50 (Table A, read-out: hT2R8 IC50): 0.98 µM"
"COc1ccccc1CC(=O)Nc1cnn(Cc2c(C)noc2C)c1 [Example 4-35, N-(1-((3,5-dimethylisoxazol-4-yl)methyl)-1H-pyrazol-4-yl)-2-(2-methoxyphenyl)acetamide]",,,"IC50 (Table A, read-out: hT2R8 IC50): 1.16 µM"
"COCCn1c(=O)n(-c2cnn(Cc3c(C)noc3C)c2)c(=O)n1Cc1ccccc1 [Example 10-92, 1-benzyl-4-(1-((3,5-dimethylisoxazol-4-yl)methyl)-1H-pyrazol-4-yl)-2-(2-methoxyethyl)-1,2,4-triazolidine-3,5-dione]",0.06,0.057,
"Cc1noc(C)c1Cn1cc(N2C(=O)C(Cc3ccccc3)N(C)C2=O)cn1 (stereo not shown) [Example 10-42, 5-benzyl-3-(1-((3,5-dimethylisoxazol-4-yl)methyl)-1H-pyrazol-4-yl)-1-methylimidazolidine-2,4-dione]",0.15,0.017,
"Cc1noc(C)c1CN1C(=O)N(c2cnn(Cc3c(C)noc3C)c2)C(=O)C1(C)C [Example 12-21, 1-((3,5-dimethylisoxazol-4-yl)methyl)-3-(1-((3,5-dimethylisoxazol-4-yl)methyl)-1H-pyrazol-4-yl)-5,5-dimethylimidazolidine-2,4-dione]",0.08,,
"Cc1noc(C)c1Cn1cc(N2C(=O)N(Cc3cccc(OCC(=O)O)c3)C(C)(C)C2=O)cn1 [Example 12-90, 2-(3-((3-(1-((3,5-dimethylisoxazol-4-yl)methyl)-1H-pyrazol-4-yl)-5,5-dimethyl-2,4-dioxoimidazolidin-1-yl)methyl)phenoxy)acetic acid]",,,IC50 [1]: 2.85 µM
"COc1cc(C(=O)Nc2cnn(Cc3c(C)noc3C)c2)ccc1C [Example 4-74, N-(1-((3,5-dimethylisoxazol-4-yl)methyl)-1H-pyrazol-4-yl)-3-methoxy-4-methylbenzamide]",,,"IC50 (Table A, read-out: hT2R8 IC50): 2.2 µM"
"COc1ccc(OC)c(S(=O)(=O)Nc2cnn(Cc3c(C)noc3C)c2)c1 [Example 4-101, N-(1-((3,5-dimethylisoxazol-4-yl)methyl)-1H-pyrazol-4-yl)-2,5-dimethoxybenzenesulfonamide]",,,"IC50 (Table A, read-out: hT2R8 IC50): 1.63 µM"
"Cc1noc(C)c1Cn1cc(N2C(=O)N(Cc3ccccc3O)C(C)(C)C2=O)cn1 [Example 12-39, 3-(1-((3,5-dimethylisoxazol-4-yl)methyl)-1H-pyrazol-4-yl)-1-(2-hydroxybenzyl)-5,5-dimethylimidazolidine-2,4-dione]",,,IC50 [1]: 0.07 µM
"Cc1noc(C)c1Cn1cc(NS(=O)(=O)c2ccccc2C#N)cn1 [Example 4-99, 2-cyano-N-(1-((3,5-dimethylisoxazol-4-yl)methyl)-1H-pyrazol-4-yl)benzenesulfonamide]",,,"IC50 (Table A, read-out: hT2R8 IC50): 1.36 µM"
"Cc1noc(C)c1Cn1cc(N2C(=O)N(Cc3cc(F)ccc3F)C(C)(C)C2=O)cn1 [Example 12-59, 1-(2,5-difluorobenzyl)-3-(1-((3,5-dimethylisoxazol-4-yl)methyl)-1H-pyrazol-4-yl)-5,5-dimethylimidazolidine-2,4-dione]",,,IC50 [1]: 0.24 µM

Compound,IC50 [2] [µM],IC50 [3] [µM],other results
"COc1ccccc1CN1CC(=O)N(c2cnn(Cc3c(C)noc3C)c2)C1=O [Example 10-18, 3-(1-((3,5-dimethylisoxazol-4-yl)methyl)-1H-pyrazol-4-yl)-1-(2-methoxybenzyl)imidazolidine-2,4-dione]",,0.06,IC50 [4]: 0.06 µM
"Cc1noc(C)c1Cn1cc(N2C(=O)N(Cc3ccncc3)C(C)(C)C2=O)cn1 [Example 12-52, 3-(1-((3,5-dimethylisoxazol-4-yl)methyl)-1H-pyrazol-4-yl)-5,5-dimethyl-1-(pyridin-4-ylmethyl)imidazolidine-2,4-dione]",,,IC50 [1]: 0.19 µM
"Cc1noc(C)c1Cn1cc(N2C(=O)CN(Cc3ccn(C)n3)C2=O)cn1 [Example 10-38, 3-(1-((3,5-dimethylisoxazol-4-yl)methyl)-1H-pyrazol-4-yl)-1-((1-methyl-1H-pyrazol-3-yl)methyl)imidazolidine-2,4-dione]",,0.363,IC50 [4]: 0.4 µM
"Cc1noc(C)c1Cn1cc(N2C(=O)CN(Cc3ccc(C#N)cc3)C2=O)cn1 [Example 10-32, 4-((3-(1-((3,5-dimethylisoxazol-4-yl)methyl)-1H-pyrazol-4-yl)-2,4-dioxoimidazolidin-1-yl)methyl)benzonitrile]",,0.048,IC50 [4]: 0.05 µM
"COc1cc(CN2C(=O)N(c3cnn(Cc4c(C)noc4C)c3)C(=O)C2(C)C)cc(OC)c1 [Example 12-18, 1-(3,5-dimethoxybenzyl)-3-(1-((3,5-dimethylisoxazol-4-yl)methyl)-1H-pyrazol-4-yl)-5,5-dimethylimidazolidine-2,4-dione]",0.3,,
"Cc1noc(C)c1Cn1cc(N2C(=O)CN(CCc3ccc(O)cc3)C2=O)cn1 [Example 10-86, 3-(1-((3,5-dimethylisoxazol-4-yl)methyl)-1H-pyrazol-4-yl)-1-(4-hydroxyphenethyl)imidazolidine-2,4-dione]",0.41,0.412,
"Cc1noc(C)c1Cn1cc(N2C(=O)N(Cc3cccc(F)c3F)C(C)(C)C2=O)cn1 [Example 12-66, 1-(2,3-difluorobenzyl)-3-(1-((3,5-dimethylisoxazol-4-yl)methyl)-1H-pyrazol-4-yl)-5,5-dimethylimidazolidine-2,4-dione]",,,IC50 [1]: 0.31 µM
"COc1ccc(C(=O)Nc2cnn(Cc3c(C)noc3C)c2)cc1 [Example 4-17, N-(1-((3,5-dimethylisoxazol-4-yl)methyl)-1H-pyrazol-4-yl)-4-methoxybenzamide]",,,"IC50 (Table A, read-out: hT2R8 IC50): 0.26 µM"
"Cc1noc(C)c1Cn1cc(N2C(=O)CNC2=O)cn1 [Example 10-1, 3-(1-((3,5-dimethylisoxazol-4-yl)methyl)-1H-pyrazol-4-yl)imidazolidine-2,4-dione]",1.7,1.7,
"Cc1noc(C)c1Cn1cc(N2C(=O)CN(Cc3cc(C)n(C)n3)C2=O)cn1 [Example 10-28, 1-((1,5-dimethyl-1H-pyrazol-3-yl)methyl)-3-(1-((3,5-dimethylisoxazol-4-yl)methyl)-1H-pyrazol-4-yl) imidazolidine-2,4-dione]",,0.322,IC50 [4]: 0.3 µM
"Cc1noc(C)c1Cn1cc(N2C(=O)CN(Cc3ccccc3[N+](=O)[O-])C2=O)cn1 [Example 10-23, 3-(1-((3,5-dimethylisoxazol-4-yl)methyl)-1H-pyrazol-4-yl)-1-(2-nitrobenzyl)imidazolidine-2,4-dione]",,0.081,IC50 [4]: 0.07 µM
"Cc1noc(C)c1Cn1cc(N2C(=O)N(Cc3ccccn3)C(C)(C)C2=O)cn1 [Example 12-61, 3-(1-((3,5-dimethylisoxazol-4-yl)methyl)-1H-pyrazol-4-yl)-5,5-dimethyl-1-(pyridin-2-ylmethyl)imidazolidine-2,4-dione]",,,IC50 [1]: 0.26 µM
"COc1cc(CN2C(=O)N(c3cnn(Cc4c(C)noc4C)c3)C(=O)C2(C)C)ccc1F [Example 12-20, 3-(1-((3,5-dimethylisoxazol-4-yl)methyl)-1H-pyrazol-4-yl)-1-(4-fluoro-3-methoxybenzyl)-5,5-dimethylimidazolidine-2,4-dione]",0.18,,
"Cc1noc(C)c1Cn1cc(N2C(=O)N(CCc3ccc(F)cc3)C(C)(C)C2=O)cn1 [Example 12-69, 3-(1-((3,5-dimethylisoxazol-4-yl)methyl)-1H-pyrazol-4-yl)-1-(4-fluorophenethyl)-5,5-dimethylimidazolidine-2,4-dione]",,,IC50 [1]: 0.33 µM
"Cc1noc(C)c1Cn1cc(N2C(=O)NC(CC(C)C)C2=O)cn1 (stereo not shown) [Example 10-61, 3-(1-((3,5-dimethylisoxazol-4-yl)methyl)-1H-pyrazol-4-yl)-5-isobutylimidazolidine-2,4-dione]",1,0.912,
"Cc1noc(C)c1Cn1cc(NC(=S)Nc2ccccc2)cn1 [Example 4-112, 1-(1-((3,5-dimethylisoxazol-4-yl)methyl)-1H-pyrazol-4-yl)-3-phenylthiourea]",,,"IC50 (Table A, read-out: hT2R8 IC50): 2.49 µM"
"Cc1noc(C)c1Cn1cc(N2C(=O)CN(Cc3ccccc3C#N)C2=O)cn1 [Example 10-19, 2-((3-(1-((3,5-dimethylisoxazol-4-yl)methyl)-1H-pyrazol-4-yl)-2,4-dioxoimidazolidin-1-yl)methyl)benzonitrile]",0.5,0.55,

# — patent US9247759B2, “Identification of human T2R receptors that respond to bitter compounds that elicit the bitter taste in compositions, and the use thereof in assays to identify compounds that inhibit (block) bitter taste in compositions and use thereof” (SENOMYX, INC., priority 2007, dated 2016)
